Data taken from patent US20130338142A1, “IMIDAZOPYRAZINE SYK INHIBITORS” (Gilead Connecticut, Inc., priority 2012, published 2013).

Biological target: Syk (Homo sapiens, UniProt P43405)
Assay: High throughput Syk assay (TR-FRET, KinEASE)
Assay type: biochemical
Settings: Syk TR-FRET assay of Example B2; 3 μM ATP, 0.5 nM Syk
Experimental: The following high throughput Syk assay was performed on the compounds of Table 1 as follows.
Syk activity was measured by detecting phosphorylated peptide substrate formation using antibody against phosphorylated peptide substrate. This is a time-resolved fluorescence resonance energy transfer (TR-FRET) immunoassay, based on the KinEASE Assay (Cisbio). […] Test compounds (in DMSO) were spotted into 384 well plates using a Labcyte® Echo 550 Liquid Handling System prior to addition of Syk enzyme and peptide substrate. Reaction solutions were delivered using a Multi-Flo (Bio-Tek Instruments). The enzyme and peptide solution was incubated with compound for 60 minutes at room temp before the reaction was initiated by the addition of ATP. […] The europium donor was excited using a 340-nm excitation filter with a 30-nm band pass. Energy transfer to the tracer was measured using a filter centered at 665 nm with a 10 nm bandpass. This signal was then referenced to the emission from europium peak, using a 615 nm, 10-nm bandpass filter. The “emission ratio” was calculated as the 665 nm signal divided by the 615 nm signal. Percentage of inhibition was calculated as below:
% Inhibition=100×(RatioSample−Ratio0% Inhibition)/(Ratio100% Inhibition−Ratio0% Inhibition)

| SMILES | IC50 [nM] |
| --- | --- |
| COc1cc(Nc2nc(-c3ccc4c(c3)C(=O)NCCO4)cn3ccnc23)ccc1N1CCN(C2COC2)CC1 [Compound 55, 7-(8-((3-methoxy-4-(4-(oxetan-3-yl)piperazin-1-yl)phenyl)amino)imidazo[1,2-a]pyrazin-6-yl)-3,4-dihydrobenzo[f][1,4]oxazepin-5(2H)-one] | 8 |
| COc1cc(Nc2nc(-c3cnc4c(c3)NCCO4)cn3ccnc23)ccc1OC1CCC1 [Compound 29, N-(4-cyclobutoxy-3-methoxyphenyl)-6-(2,3-dihydro-1H-pyrido[2,3-b][1,4]oxazin-7-yl)imidazo[1,2-a]pyrazin-8-amine] | 7 |
| c1cn2cc(-c3ccc4c(c3)CNCCO4)nc(Nc3ccc(N4CCOCC4)cc3)c2n1 [Compound 78, N-(4-morpholinophenyl)-6-(2,3,4,5-tetrahydrobenzo[f][1,4]oxazepin-7-yl)imidazo[1,2-a]pyrazin-8-amine] | 18 |
| COc1cc(Nc2nc(-c3cnc4c(c3)NCCO4)cn3ccnc23)ccc1N1CC2COCC2C1 (centres unmarked) [Compound 99, 6-(2,3-dihydro-1H-pyrido[2,3-b][1,4]oxazin-7-yl)-N-(3-methoxy-4-(tetrahydro-1H-furo[3,4-c]pyrrol-5(3H)-yl)phenyl)imidazo[1,2-a]pyrazin-8-amine] | 16 |
| COc1cc(Nc2nc(-c3cnc4c(c3)NCCO4)cn3ccnc23)ccc1N1CCN(CC2(C)COC2)CC1 [Compound 28, 6-(2,3-dihydro-1H-pyrido[2,3-b][1,4]oxazin-7-yl)-N-(3-methoxy-4-(4-((3-methyloxetan-3-yl)methyl)piperazin-1-yl)phenyl)imidazo[1,2-a]pyrazin-8-amine] | 4 |
| c1cn2cc(-c3ccc4c(c3)NCCO4)nc(Nc3ccc(N4CCN(C5COC5)CC4)cc3)c2n1 [Example 24, 6-(3,4-dihydro-2H-benzo[b][1,4]oxazin-6-yl)-N-(4-(4-(oxetan-3-yl)piperazin-1-yl)phenyl)imidazo[1,2-a]pyrazin-8-amine] | 11 |
| COc1cc(Nc2nc(-c3cnc4c(c3)NCCO4)cn3ccnc23)ccc1OC1COC1 [Compound 30, 6-(2,3-dihydro-1H-pyrido[2,3-b][1,4]oxazin-7-yl)-N-(3-methoxy-4-(oxetan-3-yloxy)phenyl)imidazo[1,2-a]pyrazin-8-amine] | 2 |
| CON=C1CCN(c2ccc(Nc3nc(-c4cnc5c(c4)NCCO5)cn4ccnc34)cc2OC)CC1 [Compound 106, 1-(4-((6-(2,3-dihydro-1H-pyrido[2,3-b][1,4]oxazin-7-yl)imidazo[1,2-a]pyrazin-8-yl)amino)-2-methoxyphenyl)piperidin-4-one O-methyl oxime] | 6 |
| COc1cc(Nc2nc(-c3cnc4c(c3)NCCS4)cn3ccnc23)ccc1N1CCOCC1 [Compound 58, 6-(2,3-dihydro-1H-pyrido[2,3-b][1,4]thiazin-7-yl)-N-(3-methoxy-4-morpholinophenyl)imidazo[1,2-a]pyrazin-8-amine] | 2 |
| COc1cc(Nc2nc(-c3cnc4c(c3)NCCO4)cn3ccnc23)ccc1N1CCOC(C)(C)C1 [Compound 81, 6-(2,3-dihydro-1H-pyrido[2,3-b][1,4]oxazin-7-yl)-N-(4-(2,2-dimethylmorpholino)-3-methoxyphenyl)imidazo[1,2-a]pyrazin-8-amine] | 14 |
| COc1cc(Nc2nc(-c3cnc4c(c3)NCCO4)cn3ccnc23)ccc1N1CCC[C@](C)(O)C1 [Compound 52, (S)-1-(4-((6-(2,3-dihydro-1H-pyrido[2,3-b][1,4]oxazin-7-yl)imidazo[1,2-a]pyrazin-8-yl)amino)-2-methoxyphenyl)-3-methylpiperidin-3-ol] | 7 |
| COc1cc(Nc2nc(-c3cnc4c(c3)NCCO4)cn3ccnc23)ccc1N1CC(C)(O)C1 [Compound 98, 1-(4-((6-(2,3-dihydro-1H-pyrido[2,3-b][1,4]oxazin-7-yl)imidazo[1,2-a]pyrazin-8-yl)amino)-2-methoxyphenyl)-3-methylazetidin-3-ol] | 33 |
| CC(C)n1cc(Nc2nc(-c3cnc4c(c3)NCCO4)cn3ccnc23)cn1 [Compound 36, 6-(2,3-dihydro-1H-pyrido[2,3-b][1,4]oxazin-7-yl)-N-(1-isopropyl-1H-pyrazol-4-yl)imidazo[1,2-a]pyrazin-8-amine] | 8 |
| COc1cc(Nc2nc(-c3cnc4c(c3)NCCO4)cn3ccnc23)ccc1N1CCN(C(=O)[C@H](C)O)CC1 [Compound 85, (S)-1-(4-(4-((6-(2,3-dihydro-1H-pyrido[2,3-b][1,4]oxazin-7-yl)imidazo[1,2-a]pyrazin-8-yl)amino)-2-methoxyphenyl)piperazin-1-yl)-2-hydroxypropan-1-one] | 3 |
| COc1cc(Nc2nc(-c3ccc4c(c3)C(=O)NCCO4)cn3ccnc23)ccc1N1CCOCC1 [Compound 2, 7-(8-((3-methoxy-4-morpholinophenyl)amino)imidazo [1,2-a]pyrazin-6-yl)-3,4-dihydrobenzo[f][1,4]oxazepin-5(2H)-one] | 6 |

Continued, values first:

| IC50 [nM] | SMILES |
| --- | --- |
| 4 | CC(=O)N1CCN(c2ccc(Nc3nc(-c4cnc5c(c4)NCCO5)cn4ccnc34)cc2)CC1 [Compound 34] |
| 9 | CN(C)C[C@@H]1CN(c2ccc(Nc3nc(-c4cnc5c(c4)NCCO5)cn4ccnc34)cc2)CCO1 [Compound 61, (R)-6-(2,3-dihydro-1H-pyrido[2,3-b][1,4]oxazin-7-yl)-N-(4-(2-((dimethylamino)methyl)morpholino)phenyl)imidazo[1,2-a]pyrazin-8-amine] |
| 3 | c1cn2cc(-c3cnc4c(c3)NCCO4)nc(Nc3ccc(N4CCN5CCOC[C@@H]5C4)cc3)c2n1 [Compound 82, (S)-6-(2,3-dihydro-1H-pyrido[2,3-b][1,4]oxazin-7-yl)-N-(4-(hexahydropyrazino[2,1-c][1,4]oxazin-8(1H)-yl)phenyl)imidazo[1,2-a]pyrazin-8-amine] |
| 8 | CC(C)N1CCN(c2ccc(Nc3nc(-c4cnc5c(c4)NCCO5)cn4ccnc34)cc2)CC1 [Compound 62, 6-(2,3-dihydro-1H-pyrido[2,3-b][1,4]oxazin-7-yl)-N-(4-(4-isopropylpiperazin-1-yl)phenyl)imidazo[1,2-a]pyrazin-8-amine] |
| 8 | OC1(c2ccc(Nc3nc(-c4cnc5c(c4)NCCO5)cn4ccnc34)cc2)COC1 [Compound 102, 3-(4-((6-(2,3-dihydro-1H-pyrido[2,3-b][1,4]oxazin-7-yl)imidazo[1,2-a]pyrazin-8-yl)amino)phenyl)oxetan-3-ol] |
| 7 | c1cn2cc(-c3cnc4c(c3)NCCO4)nc(Nc3ccc(C4CCOCC4)cc3)c2n1 [Compound 39, 6-(2,3-dihydro-1H-pyrido[2,3-b][1,4]oxazin-7-yl)-N-(4-(tetrahydro-2H-pyran-4-yl)phenyl)imidazo[1,2-a]pyrazin-8-amine] |
| 9 | c1cn2cc(-c3cnc4c(c3)NCCO4)nc(Nc3ccc4c(c3)OC[C@H]3COCCN43)c2n1 [Compound 43, (R)-N-(6-(2,3-dihydro-1H-pyrido[2,3-b][1,4]oxazin-7-yl)imidazo[1,2-a]pyrazin-8-yl)-2,4,4a,5-tetrahydro-1H-benzo[b][1,4]oxazino[4,3-d][1,4]oxazin-8-amine] |
| 17 | CO/N=C(\C)c1ccc(Nc2nc(-c3cnc4c(c3)NCCO4)cn3ccnc23)cc1 [Compound 107, (E)-1-(4-((6-(2,3-dihydro-1H-pyrido[2,3-b][1,4]oxazin-7-yl)imidazo[1,2-a]pyrazin-8-yl)amino)phenyl)ethanone O-methyl oxime] |
